Like-named read-outs stand apart in the source and are kept apart here. Each block holds one compound with its values, some of them ahead of it.
Experiments:
[1] = molecular target: T1, PARP1 (Homo sapiens, UniProt P09874); assay: Colorimetric PARP1 activity assay (Trevigen), IC50 determination; type: biochemical
T1 construct: purchased Trevigen, Gaithersburg, Md
Procedure: A commercially available colorimetric assay (Trevigen, Gaithersburg, Md.) was used to measure PARP activity in vitro in the presence of inhibitors. […] All experiments were carried out in triplicate. […] All reaction mixtures were adjusted to a final volume of 50 μL and a maximum final concentration 0.4% DMSO in assay buffer. The remainder of the assay was performed according to the manufacturer's instructions. PARP activity was measured by absorbance at 450 nm in each well using a Safire 2 microplate reader (Tecan Group, Männedorf, Switzerland). IC50 values were calculated using Prism software (GraphPad, La Jolla, Calif.).
A commercially available colorimetric assay (Trevigen, Gaithersburg, Md.) was used to measure PARP activity in vitro in the presence of inhibitors. […] All experiments were carried out in triplicate. […] All reaction mixtures were adjusted to a final volume of 50 μL and a maximum final concentration 0.4% DMSO in assay buffer. The remainder of the assay was performed according to the manufacturer's instructions. PARP activity was measured by absorbance at 450 nm in each well using a Safire2 microplate reader. IC50 values were calculated using the Prism software package.

[2] = system: PARP1/PARP2; assay: Comparison of AZD2281-BODIPY FL uptake and PARP1/PARP2 expression in cell lines; type: cell-based; conditions: fixed cells, 20 minutes incubation
Procedure: RAW 264.7, Panc-1, MIA Paca2, A2780, OVCAR429, UCI 101, UCI 107, SKOV-3, OVCAR-3, and OV-90 cells (200 μL, 35,000 cells/mL) were each seeded in their respective growth medium on 96-well plates and allowed to attach for 48 hours. […] Cells were then fixed with paraformaldehyde (4% in PBS) and washed with ice cold PBS/0.1% Triton X-100/0.5% bovine serum albumin (3×200 μL, 3rd wash left for 30 min). Cells were incubated with anti-PARP-1/2 Rab (1:50; SCBT, Santa Cruz, Calif.) at 4° C. overnight. Cells were washed with PBS/0.1% Triton X-100 (3×200 μL) before stained with secondary IgG-Cy5 Gab (1:100; Millipore, Billerica, Mass.) for 3 h at 4° C. Cells were then washed with PBS (1×, 200 μL), stained with Hoechst (Invitrogen, Carlsbad, Calif.) and blue whole cell stain (Thermo Scientific, Waltham, Mass.) for 30 minutes at room temperature, and washed with PBS (3×, 200 μL) before imaging and quantification of the respective fluorescence signals.

[3] = system: HT1080 cells; assay: Life cell imaging, in vitro uptake and clearance kinetics; type: cell-based
Procedure: For in vitro kinetic studies, HT1080 cells were labeled with a 1 μM concentration of AZD2281 fluorophore conjugate in cell culture medium and imaged on an inverted Deltavision epifluorescence microscope using a 37° C. heated stage and 5% CO2 atmosphere for various times. After subtracting the background fluorescence, the data were fitted to an exponential association curve. […] Cells were washed twice in cell culture media and imaged continuously (BODIPYFL conjugate) or after various time points (BODIPY578 and BODIPY650). The loss in fluorescence was fitted to a biexponential decay curve.

[4] = system: HT-1080 cells expressing H2B-apple; assay: Intravital imaging, window chamber mice with HT-1080 H2B-apple cells; type: in vivo
Procedure: For the in vivo studies, mice with window chambers were implanted with 1 million HT-1080 cells expressing H2B-apple fluorescence protein. 75 nmol of AZD2281-BODIPYFL were dissolved in 75 μL of 1:1:DMAC:solutol and 75 μL of PBS and injected via tail vein. Images of the vessels were taken using a 20× water immersion objective on a laser scanning confocal microscope while the mouse was anesthetized with isoflurane.

[5] = system: SKOV-3, MIA Paca2, A2780, Panc-1 tumors; assay: Tumor versus muscle fluorescence uptake in Nu/Nu mice, excised tissues; type: in vivo; conditions: 75 nmol via tail vein, 45 minutes
Procedure: For ^18F-AZD2281 standardized uptake values, five Nu/Nu mice each received four subcutaneous injections containing SKOV-3, MIA Paca2, A2780, or Panc-1 cells in the flanks and shoulders (2.5×10^6 cells in 100 μL 70:30 PBS/BD matrigel per injection) (BD Biosciences, Bedford, Mass.). Tumors were allowed to grow for two weeks before imaging. 75 nmol of AZD2281-BODIPYFL were dissolved in 75 μL of 1:1:DMAC:solutol and 75 μL of PBS and injected via tail vein. The agent was allowed to circulate and clear for 45 minutes, before the mice were sacrificed, tumors and muscle tissue excised and the relative fluorescence uptake of tissues quantified against mice which were injected with just 1:1:DMAC:solutol.

[6] = system: MDA-MB-436 cells; assay: AZD2281-TCO / Texas Red-Tz bioorthogonal reaction and imaging in live MDA-MB-436 cells; type: cell-based; conditions: sequential AZD2281-TCO (7)/Texas Red-Tz (8)
Procedure: (§1) Cells were then incubated with Texas Red-Tz (8) (25 μL, 20 μM) for 20 minutes (37° C.) before the medium was removed and cells were washed (1×, medium, 500 μL). […] Cells were washed with PBS (3×500 μL), fixed with paraformaldehyde (4% in PBS) and washed with PBS (3×500 μL, time between each wash=5 minutes). PBS was removed and cells mounted using Prolong Gold (Invitrogen, Carlsbad, Calif.) before imaging.
as §1, with “min). […]” for “minutes). PBS was removed and cells mounted using Prolong Gold (Invitrogen, Carlsbad, Calif.) before imaging.”
Cells were observed on a Nikon 80i (Nikon, Tokyo JP) microscope equipped with an ImagEM camera (Hammamatsu Photonics, Tokyo JP). […] For each image, both cell structures and nuclei structures have been obtained using the appropriate fluorescence filters and appropriate excitation signal levels to avoid collecting auto-fluorescence. […] Within each image and for each cell, the fluorescence signal for the total cell and the signal in the nuclear area was calculated using the corresponding mask as a spatial filter. […] The ratio of the fluorescent signal in the cytosol region over the signal in the nuclear region was then calculated. […]

[7] = system: MDA-MB-436 tumors; assay: PET-CT imaging of MDA-MB-436 tumor-bearing mice, with and without AZD2281; type: in vivo; conditions: 1 mg AZD2281 BID, then re-injection of probe
Procedure: Non-tumor bearing Nu/Nu mice were injected with (6^18F) and used for organ distribution immediately after injection over a time period of 2 hours. Tumor-bearing mice received s.c. injections with 5×10^6 MDA-MB-436 cells (American Type Culture Collection) in Matrigel (BD Biosciences) into each flank and underwent imaging 7 days later (injection of (6^18F) and immediate imaging over a time period of 2 hours). All mice were anesthetized (isoflurane 1.5%; O2 2 L/min) during imaging with a gas delivery system integrated into a multimodal imaging cartridge. All animal experiments were approved by Massachusetts General Hospital's Institutional Review Committee.
Images were acquired on the Siemens Inveon PET-CT. Each PET acquisition was 120 minutes in duration. PET was reconstructed from 600 million coincidental 511 keV photon counts on a series of LSO (lutetium oxyorthosilicate) scintillating crystals. Counts were rebinned in 3D by registering photons spanning no more than 3 consecutive rings and reconstructed into sinograms using a high resolution Fourier Rebin algorithm. Sinograms also yielded a 3D mapping of positron signal using a 2D filtered back-projection algorithm and a Ramp filter with a Nyquist cut-off of 0.5. […] Data are expressed as standard uptake values (SUV), which normalizes activity measurements to body weight and injected activity. […]

[8] = system: A2780 tumors; assay: Non-invasive monitoring of treatment response in tumor-bearing Nu/Nu mice (SUV); type: in vivo; conditions: treatment with Olaparib
Procedure: ^18F-AZD2281 was synthesized as described herein. Nu/Nu mice bearing either A2780 tumors (treatment response) or A2780, Paca2, Panc1 and SKOV3 (differential uptake) were injected with the hot probe (500-750 μCi) and imaged ˜1.5 hours thereafter. Treatment consisted of injection of 0.5-1.0 mg AZD2281 (Olaparib) 18 hours before imaging (ip, interperitoneal) or ˜1.5-3.5 hours before imaging (iv, intravenous). Uptake was determined non-invasively by drawing SUVs (Standard Uptake Values).

[9] = 1 μM, HT1080, exponential association fit
[10] = labeled at 1 μM for 1 hour, washed, biexponential decay fit

T1 sequence (P09874 whole entry): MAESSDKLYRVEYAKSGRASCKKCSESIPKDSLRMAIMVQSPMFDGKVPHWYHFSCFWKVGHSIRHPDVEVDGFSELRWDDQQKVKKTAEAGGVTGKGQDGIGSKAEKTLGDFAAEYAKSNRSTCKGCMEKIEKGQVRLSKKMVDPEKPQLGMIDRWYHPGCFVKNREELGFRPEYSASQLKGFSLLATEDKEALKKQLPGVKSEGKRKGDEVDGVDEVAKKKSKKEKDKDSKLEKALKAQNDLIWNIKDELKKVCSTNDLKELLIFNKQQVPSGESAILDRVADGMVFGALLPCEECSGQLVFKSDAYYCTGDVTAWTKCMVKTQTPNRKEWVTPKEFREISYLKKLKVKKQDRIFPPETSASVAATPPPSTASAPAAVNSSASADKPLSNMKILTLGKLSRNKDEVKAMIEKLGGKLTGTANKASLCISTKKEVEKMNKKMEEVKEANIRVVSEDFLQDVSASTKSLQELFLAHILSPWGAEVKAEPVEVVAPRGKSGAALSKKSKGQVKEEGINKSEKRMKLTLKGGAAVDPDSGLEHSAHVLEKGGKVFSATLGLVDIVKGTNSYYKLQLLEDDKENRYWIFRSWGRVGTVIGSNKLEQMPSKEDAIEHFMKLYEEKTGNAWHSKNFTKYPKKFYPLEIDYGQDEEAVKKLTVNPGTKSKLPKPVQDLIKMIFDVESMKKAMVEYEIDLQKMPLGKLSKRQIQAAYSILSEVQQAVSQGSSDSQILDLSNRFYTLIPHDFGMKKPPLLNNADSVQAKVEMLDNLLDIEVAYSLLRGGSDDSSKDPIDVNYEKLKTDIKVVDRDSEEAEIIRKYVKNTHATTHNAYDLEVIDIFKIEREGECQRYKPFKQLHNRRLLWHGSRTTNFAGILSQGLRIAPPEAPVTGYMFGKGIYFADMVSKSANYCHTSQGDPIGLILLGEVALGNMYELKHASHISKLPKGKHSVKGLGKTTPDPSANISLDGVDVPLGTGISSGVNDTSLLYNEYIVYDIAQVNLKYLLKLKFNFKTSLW

Structure (SMILES): O=C(CF)N1CCN(C(=O)c2cc(Cc3n[nH]c(=O)c4ccccc34)ccc2F)CC1 [17^19F]
IC50 [1]: 5.2 ± 1.1 nM

Structure (SMILES): Cc1cc(C)n2c1C=C1C=CC(CCC(=O)N3CCN(C(=O)c4cc(Cc5n[nH]c(=O)c6ccccc56)ccc4F)CC3)=[N+]1[B-]2(F)F [AZD2281-BODIPY FL]
cellular localization [2]: localizes with the nucleus
Uptake, Nucleus [3, 9]: Nucleus = 1.1 min
Uptake, Perinuclear [3, 9]: Perinuclear = 1.2 min
Clearance (weighted), Nucleus [3, 10]: Nucleus = slow
Clearance (weighted), Perinuclear [3, 10]: Perinuclear = 1.7 min
time after which non-specific uptake cleared, revealing nuclear uptake ([4]; 75 nmol via tail vein): 1 h
distribution in tumor after iv injection ([4]; first in vascular system, then tumor cells): concentrates in each and every tumor cell of the tumor
uptake in muscle compared to tumor tissues [5]: very little of the compound gets taken up by muscle cells compared to the tumor tissues

IC50 ([1]; Example 1, 0.5 units PARP HSA, 10 minutes, read-out: IC50): 10.1 ± 1.3 nM
Structure (SMILES): O=C(CCCC(=O)N1CCN(C(=O)c2cc(Cc3n[nH]c(=O)c4ccccc34)ccc2F)CC1)NCCNC(=O)C1C[C@@H]2C=C[C@H]1C2 (stereo partly shown) [AZD2281-NOB]

Structure (SMILES): O=C(CCCC(=O)N1CCN(C(=O)c2cc(Cc3n[nH]c(=O)c4ccccc34)ccc2F)CC1)NCCNC(=O)OC1CC/C=C/CCC1 (stereo not shown) [AZD2281-TCO]
spatial correlation of Texas Red staining with anti-PARP1 Mab staining [6]: excellent spatial correlation

Structure (SMILES): O=C(c1cc(Cc2n[nH]c(=O)c3ccccc23)ccc1F)N1CCN(C(=O)C2CC2)CC1 [AZD2281]
effect on uptake of 18F-AZD2281 into tumors [7]: inhibition of the probe s uptake into the tumors

Structure (SMILES): OC[C@H]1O[C@@H](O)[C@H]([18F])[C@@H](O)[C@@H]1O [FDG]
ability to distinguish between treated and untreated tumors (tumor/muscle signal intensity) [8]: not able
